Measurements reported in PubChem BioAssay AID226 (DTP/NCI, 2004).
Values joined by “and” are separate entries in the source; they are usually repeats but may differ in a detail not shown here. Equal entries are not always repeated. Toxic doses and inconclusive results are not listed. How the source made its calls: active means survival T/C of 150% or more; inactive means T/C below 125% in these data.

Tested on: B6C3F1 mice, intracerebral ependymoblastoma, median survival T/C
Test: NCI In Vivo Anticancer Drug Screen. Data for tumor model Ependymoblastoma (intracerebral) in B6C3F1 mice
Settings: endpoint: median survival time, higher = longer survival
Procedure: The antitumor activity of compounds was measured in mice bearing transplantable tumors. Survival or tumor size were measured and the results are expressed as the measurement made in the treated group (T) divided by the measurement made in the vehicle treated control group (C). The tumor model used in this assay is Ependymoblastoma (intracerebral) in B6C3F1 mice

[1] = dose: 1.0 mg/kg/injection, schedule: Q01DX005 (ip), vehicle: saline
[2] = dose: 2.0 mg/kg/injection, schedule: Q01DX005 (ip), vehicle: saline
[3] = dose: 4.0 mg/kg/injection, schedule: Q01DX005 (ip), vehicle: saline

Measured: T/C

COc1cccc2c1C(=O)c1c(O)c3c(c(O)c1C2=O)C[C@@](O)(C(=O)CO)C[C@@H]3OC1CC(N)C(O)C(C)O1 (stereo partly drawn)
inactive: dose: 0.06 mg/kg/injection, schedule: Q03HX008 (ip), vehicle: saline 104 % of control | dose: 0.12 mg/kg/injection, schedule: Q01DX005 (ip), vehicle: water 96 % of control | dose: 0.12 mg/kg/injection, schedule: Q03HX008 (ip), vehicle: saline 100 % of control and 113 % of control | dose: 0.25 mg/kg/injection, schedule: Q01DX005 (ip), vehicle: saline 94 % of control and 113 % of control and 114 % of control | dose: 0.25 mg/kg/injection, schedule: Q01DX005 (ip), vehicle: water 102 % of control | dose: 0.25 mg/kg/injection, schedule: Q03HX008 (ip), vehicle: saline 106 % of control and 120 % of control | dose: 0.5 mg/kg/injection, schedule: Q01DX005 (ip), vehicle: saline 103 % of control and 105 % of control and 114 % of control | dose: 0.5 mg/kg/injection, schedule: Q01DX005 (ip), vehicle: suspension in saline 103 % of control | dose: 0.5 mg/kg/injection, schedule: Q01DX005 (ip), vehicle: water 92 % of control and 113 % of control | dose: 0.5 mg/kg/injection, schedule: Q03HX008 (ip), vehicle: saline 114 % of control | [1] 109 % of control and 110 % of control and 116 % of control | dose: 1.0 mg/kg/injection, schedule: Q01DX005 (ip), vehicle: suspension in saline 108 % of control | dose: 1.0 mg/kg/injection, schedule: Q01DX005 (ip), vehicle: water 102 % of control and 116 % of control | [2] 116 % of control and 118 % of control | dose: 2.0 mg/kg/injection, schedule: Q01DX005 (ip), vehicle: suspension in saline 121 % of control | dose: 2.0 mg/kg/injection, schedule: Q01DX005 (ip), vehicle: water 107 % of control and 113 % of control | dose: 4.0 mg/kg/injection, schedule: Q01DX001 (oral), vehicle: saline 100 % of control | [3] 100 % of control and 118 % of control and 86 % of control | dose: 8.0 mg/kg/injection, schedule: Q01DX001 (oral), vehicle: saline 96 % of control | dose: 16.0 mg/kg/injection, schedule: Q01DX001 (oral), vehicle: saline 103 % of control | dose: 32.0 mg/kg/injection, schedule: Q01DX001 (oral), vehicle: saline 89 % of control

NCCOCC(N)C(=O)O (stereo not drawn)
inactive: dose: 62.5 mg/kg/injection, schedule: Q01DX005 (ip), vehicle: saline 93 % of control | dose: 125.0 mg/kg/injection, schedule: Q01DX005 (ip), vehicle: saline 95 % of control | dose: 250.0 mg/kg/injection, schedule: Q01DX005 (ip), vehicle: saline 98 % of control | dose: 500.0 mg/kg/injection, schedule: Q01DX005 (ip), vehicle: saline 103 % of control

CC(=O)NNC(=O)c1ccccn1
inactive: dose: 100.0 mg/kg/injection, schedule: Q01DX005 (ip), vehicle: Klucel (hydroxypropylcellulose) (HPC) 101 % of control and 110 % of control | dose: 200.0 mg/kg/injection, schedule: Q01DX005 (ip), vehicle: Klucel (hydroxypropylcellulose) (HPC) 92 % of control and 90 % of control | dose: 400.0 mg/kg/injection, schedule: Q01DX005 (ip), vehicle: Klucel (hydroxypropylcellulose) (HPC) 95 % of control and 103 % of control

COC1C(O)C(C)OC(OC2C(Oc3cccc4c(O)c5c(=O)oc6ccc(C)c7c(=O)oc(c34)c5c67)OC(C)C(O)C2O)C1O (stereo not drawn)
inactive: [1] 105 % of control | dose: 2.0 mg/kg/injection, schedule: Q01DX005 (ip), vehicle: saline with Tween-80 94 % of control and 105 % of control | [2] 98 % of control | dose: 4.0 mg/kg/injection, schedule: Q01DX005 (ip), vehicle: saline with Tween-80 99 % of control and 102 % of control | [3] 96 % of control | dose: 8.0 mg/kg/injection, schedule: Q01DX005 (ip), vehicle: saline with Tween-80 102 % of control and 104 % of control | dose: 8.0 mg/kg/injection, schedule: Q01DX005 (ip), vehicle: saline 101 % of control | dose: 16.0 mg/kg/injection, schedule: Q01DX005 (ip), vehicle: saline with Tween-80 100 % of control and 105 % of control | dose: 16.0 mg/kg/injection, schedule: Q01DX005 (ip), vehicle: saline 93 % of control | dose: 32.0 mg/kg/injection, schedule: Q01DX005 (ip), vehicle: saline with Tween-80 106 % of control and 89 % of control | dose: 32.0 mg/kg/injection, schedule: Q01DX005 (ip), vehicle: saline 98 % of control | dose: 64.0 mg/kg/injection, schedule: Q01DX005 (ip), vehicle: saline with Tween-80 102 % of control and 108 % of control | dose: 64.0 mg/kg/injection, schedule: Q01DX005 (ip), vehicle: saline 103 % of control | dose: 128.0 mg/kg/injection, schedule: Q01DX005 (ip), vehicle: saline with Tween-80 106 % of control and 111 % of control | dose: 128.0 mg/kg/injection, schedule: Q01DX005 (ip), vehicle: saline 98 % of control
